Experimental data as given in patent US20180228861A1, “COMPOSITION FOR TREATING DIABETES AND DYSLIPIDEMIA OBTAINED FROM THE EXTRACT OF COSTUS PICTUS D.DON PLANT AND A METHOD OF PREPARING THE SAME” (ARJUNA NATURAL EXTRACTS, LTD., priority 2012, published 2018).

Columns and labels:
Type in all cases: in vivo
[1] = tested on: streptozotocin-induced Type 1 diabetic model in Wistar rats; assay: Oral glucose tolerance test (post prandial glucose) in streptozotocin-induced diabetic rats; settings: OGTT, glucose 2.5 g/kg oral gavage
Method: (§1) The study was conducted in adult male Wistar rats weighing 200-250 gm for a period of 40 days (30 days of treatment and 10 days of induction). The animals were randomly divided into seven groups comprising six each. Diabetes was induced in all the groups except the normal control group by the intra peritoneal administration of streptozotocin at 50 mg/kg. After the induction of diabetes, one group was kept as diabetic untreated control and a positive control was maintained in which the animals were treated with standard drug, glibenclamide at 3 mg/kg orally. All the other diabetic induced groups were treated with different extracts at 300 mg/kg orally. The effect of the different fractions was assessed by measuring the fasting blood glucose level, post prandial blood glucose level, serum insulin levels and glycosylated Hb. The anti hyperlipidemic effect was assessed by the estimation of total cholesterol, triglyceride, LDL cholesterol, HDL cholesterol, VLDL, muscle glycogen and liver glycogen. The antioxidant effects of the different extracts were assessed by the measuring TBARS, superoxide dismutase (SOD), catalase, reduced glutathione (GSH) and glutathione peroxidase levels (GPx). TBARS was determined by TBA assay (Ohkawa et al., 1979), SOD was measured using the nitroblue tetrazolium reduction method (Kakkar et al., 1984), Catalase was assayed using the method described by Aebi (1974). GPx was measured as described by Flohe and Gunzler (1984), GSH was measured as per the method of Jollow et al., (1974). Histopathological examination of pancreas was conducted to assess the antidiabetic effect of the different fractions of Costus pictus D. Don.
Oral glucose tolerance test (OGTT) was performed following a glucose challenge of 2.5 g/kg by oral gavage. Blood glucose was recorded at 30 min (PPG1), 60 min (PPG2), 120 min (PPG3) and 240 min (PPG4), after the glucose challenge on day 1, day 15 and day 30 of the study.

[2] = tested on: streptozotocin-induced Type 1 diabetic model in Wistar rats; assay: Lipid profile in streptozotocin-induced diabetic rats; settings: extracts 40 mg/kg orally, glibenclamide 3 mg/kg orally
Method: as §1, with “After the induction of diabetes, one group was kept as diabetic untreated control and a positive control was maintained in which the animals were treated with standard drug, glibenclamide at 3 mg/kg orally. All the other diabetic induced groups were treated with different extracts at 300 mg/kg orally.” left out

[3] = tested on: streptozotocin-induced Type 1 diabetic model in Wistar rats; assay: Antioxidant enzymes and TBARS in streptozotocin-induced diabetic rats; settings: extracts 40 mg/kg orally, glibenclamide 3 mg/kg orally
Method: as §1, with “After the induction of diabetes, one group was kept as diabetic untreated control and a positive control was maintained in which the animals were treated with standard drug, glibenclamide at 3 mg/kg orally. All the other diabetic induced groups were treated with different extracts at 300 mg/kg orally.” left out

## COc1ccc(Cl)cc1C(=O)NCCc1ccc(S(=O)(=O)NC(=O)NC2CCCCC2)cc1 [glibenclamide]
[1]; blood glucose at 30 min, day 1
  PPG1. 1: 522.8
[1]; blood glucose at 30 min, day 15
  PPG1. 15: 318.3
[1]; blood glucose at 30 min, day 30
  PPG1. 30: 232.1
[1]; blood glucose at 60 min, day 1
  PPG2. 1: 478.4
[1]; blood glucose at 60 min, day 15
  PPG2. 15: 217.4
[1]; blood glucose at 60 min, day 30
  PPG2. 30: 240.4
[1]; blood glucose at 120 min, day 1
  PPG3. 1: 332.1
[1]; blood glucose at 120 min, day 15
  PPG3. 15: 115.3
[1]; blood glucose at 120 min, day 30
  PPG3. 30: 177.3
[1]; blood glucose at 240 min, day 1
  PPG4. 1: 201.9
[1]; blood glucose at 240 min, day 15
  PPG4. 15: 104.8
[1]; blood glucose at 240 min, day 30
  PPG4. 30: 69.8
[2]; HDL cholesterol
  HDL: 52 mg/dL
[2]; LDL cholesterol
  LDL: 56 mg/dL
[2]
  VLDL: 20 mg/dL
[2]; total cholesterol
  TC: 128 mg/dL
[2]; triglyceride
  TG: 100 mg/dL
[3]
  Catalase: 59.36 nM H2O2 decomposed/s/g
  GPx: 7.54 U/mg of protein
  GSH: 38.12 mg/100 g
  SOD: 2.96 U/mg protein
  TBARS: 0.80 mM MDA/100 g
